Laboratory results reported in doi:10.1101/2025.07.02.662867v1 (bioRxiv, 2025).

Experiments:
[1] = 24-hour IV pharmacokinetic study in T2D rat model; set-up: species or system STZ/NA diabetic); conditions: male, Sprague Dawley, in vivo
[2] = test system: type 2-like diabetic male rats; test: Blood glucose and body weight over 6 weeks in diabetic rats; format: in vivo, rat (male Sprague Dawley, STZ/NA diabetic); conditions: hydrogel vs daily bolus
[3] = typical dose of 0.5 to 1 mg; cited from earlier work

Compound | half-life [1] | body weight outcome [2] | half-life in humans [3]
CC[C@H](C)[C@H](NC(=O)[C@H](CC(C)C)NC(=O)[C@H](Cc1c[nH]c2ccccc12)NC(=O)[C@H](CCC(N)=O)NC(=O)[C@@H](NC(=O)[C@H](Cc1ccccc1)NC(=O)[C@H](C)NC(=O)[C@H](CCCCNC(=O)COCCOCCNC(=O)COCCOCCNC(=O)CC[C@H](NC(=O)CCCCCCCCCCCCCCCCCCC(=O)O)C(=O)O)NC(=O)[C@H](CCC(N)=O)NC(=O)[C@H](C)NC(=O)[C@@H](NC(=O)[C@H](CCCCN)NC(=O)[C@H](CC(=O)O)NC(=O)[C@H](CC(C)C)NC(=O)C(C)(C)NC(=O)[C@@H](NC(=O)[C@H](CO)NC(=O)[C@H](Cc1ccc(O)cc1)NC(=O)[C@H](CC(=O)O)NC(=O)[C@H](CO)NC(=O)[C@@H](NC(=O)[C@H](Cc1ccccc1)NC(=O)[C@@H](NC(=O)CNC(=O)[C@H](CCC(=O)O)NC(=O)C(C)(C)NC(=O)[C@@H](N)Cc1ccc(O)cc1)[C@@H](C)O)[C@@H](C)O)[C@@H](C)CC)[C@@H](C)CC)C(C)C)C(=O)N[C@@H](C)C(=O)NCC(=O)NCC(=O)N1CCC[C@H]1C(=O)N[C@@H](CO)C(=O)N[C@@H](CO)C(=O)NCC(=O)N[C@@H](C)C(=O)N1CCC[C@H]1C(=O)N1CCC[C@H]1C(=O)N1CCC[C@H]1C(=O)N[C@@H](CO)C(N)=O [TZP, tirzepatide] | 3.87 ± 0.63 h | noticeable weight loss in some animals | –
CC[C@H](C)[C@H](NC(=O)[C@H](Cc1ccccc1)NC(=O)[C@H](CCC(=O)O)NC(=O)[C@H](CCCCNC(=O)COCCOCCNC(=O)COCCOCCNC(=O)CC[C@H](NC(=O)CCCCCCCCCCCCCCCCC(=O)O)C(=O)O)NC(=O)[C@H](C)NC(=O)[C@H](C)NC(=O)[C@H](CCC(N)=O)NC(=O)CNC(=O)[C@H](CCC(=O)O)NC(=O)[C@H](CC(C)C)NC(=O)[C@H](Cc1ccc(O)cc1)NC(=O)[C@H](CO)NC(=O)[C@H](CO)NC(=O)[C@@H](NC(=O)[C@H](CC(=O)O)NC(=O)[C@H](CO)NC(=O)[C@@H](NC(=O)[C@H](Cc1ccccc1)NC(=O)[C@@H](NC(=O)CNC(=O)[C@H](CCC(=O)O)NC(=O)C(C)(C)NC(=O)[C@@H](N)Cc1cnc[nH]1)[C@@H](C)O)[C@@H](C)O)C(C)C)C(=O)N[C@@H](C)C(=O)N[C@@H](Cc1c[nH]c2ccccc12)C(=O)N[C@@H](CC(C)C)C(=O)N[C@H](C(=O)N[C@@H](CCCNC(=N)N)C(=O)NCC(=O)N[C@@H](CCCNC(=N)N)C(=O)NCC(=O)O)C(C)C [Sema, semaglutide] | – | – | 170 h
